The record followed here is ChEMBL document CHEMBL4393690, “Acylated sulfonamide adenosines as potent inhibitors of the adenylate-forming enzyme superfamily” (Eur J Med Chem, 2019).

In assay [1] the target is Isoleucine--tRNA ligase (Escherichia coli K-12, UniProt P00956). The experiment in a line: Inhibition of recombinant Escherichia coli BL21(DE3) isoleucyl-tRNA synthetase expressed in Escherichia coli Rosetta 2 (DE3) assessed as reduction in tRNA aminoacylation preincubated for 10 mins in presence of [14C]-isoleucin and tRNA followed by ATP addition and measured after 6 mins by scintillation counting method.

Assay [2] has as its target Serine--tRNA ligase (Escherichia coli (strain K12)) (UniProt P0A8L1). The experiment in a line: Inhibition of recombinant Escherichia coli BL21(DE3) seryl-tRNA synthetase expressed in Escherichia coli Rosetta 2 (DE3) assessed as reduction in tRNA aminoacylation at 2 uM preincubated for 10 mins in presence of [14C]-isoleucin and tRNA followed by ATP addition and measured after 6 mins by scintillation counting method.

Sequence of Isoleucine--tRNA ligase (P00956 whole entry): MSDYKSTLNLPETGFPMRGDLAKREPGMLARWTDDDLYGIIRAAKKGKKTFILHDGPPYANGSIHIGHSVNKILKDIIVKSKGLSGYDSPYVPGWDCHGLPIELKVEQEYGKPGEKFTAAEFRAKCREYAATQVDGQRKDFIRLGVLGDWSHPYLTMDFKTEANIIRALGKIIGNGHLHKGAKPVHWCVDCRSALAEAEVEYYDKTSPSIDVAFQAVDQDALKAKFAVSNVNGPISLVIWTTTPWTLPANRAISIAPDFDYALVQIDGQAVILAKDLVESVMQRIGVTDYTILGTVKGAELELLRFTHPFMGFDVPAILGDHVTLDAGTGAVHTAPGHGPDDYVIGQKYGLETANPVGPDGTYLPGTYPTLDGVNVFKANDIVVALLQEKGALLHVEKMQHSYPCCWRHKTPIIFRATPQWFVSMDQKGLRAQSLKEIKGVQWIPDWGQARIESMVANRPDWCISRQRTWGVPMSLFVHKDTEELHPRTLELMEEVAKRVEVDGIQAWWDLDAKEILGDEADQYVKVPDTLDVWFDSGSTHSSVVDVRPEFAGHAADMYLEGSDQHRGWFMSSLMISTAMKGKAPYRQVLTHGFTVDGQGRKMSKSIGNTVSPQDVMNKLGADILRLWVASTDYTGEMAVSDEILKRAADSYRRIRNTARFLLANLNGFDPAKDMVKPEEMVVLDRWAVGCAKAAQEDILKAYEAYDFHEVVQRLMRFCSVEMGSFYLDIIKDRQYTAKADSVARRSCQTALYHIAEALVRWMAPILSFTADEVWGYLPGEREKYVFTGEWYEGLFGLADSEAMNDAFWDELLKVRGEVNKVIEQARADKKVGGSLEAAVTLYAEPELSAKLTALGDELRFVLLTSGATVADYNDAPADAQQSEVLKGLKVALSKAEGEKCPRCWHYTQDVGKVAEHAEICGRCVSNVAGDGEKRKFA
Sequence of Serine--tRNA ligase (Escherichia coli (strain K12)) (P0A8L1 whole entry, looked up): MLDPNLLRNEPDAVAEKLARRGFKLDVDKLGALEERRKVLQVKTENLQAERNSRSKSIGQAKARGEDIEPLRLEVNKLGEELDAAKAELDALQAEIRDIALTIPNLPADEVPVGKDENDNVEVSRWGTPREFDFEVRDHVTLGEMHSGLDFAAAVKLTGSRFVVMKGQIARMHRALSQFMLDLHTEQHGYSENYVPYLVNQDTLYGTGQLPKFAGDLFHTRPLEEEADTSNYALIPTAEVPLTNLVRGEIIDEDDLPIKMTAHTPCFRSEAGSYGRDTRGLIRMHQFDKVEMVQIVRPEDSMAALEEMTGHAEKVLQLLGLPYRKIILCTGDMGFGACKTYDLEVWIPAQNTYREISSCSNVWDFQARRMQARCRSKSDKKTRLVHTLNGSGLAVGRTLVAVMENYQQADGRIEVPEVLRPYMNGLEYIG

As for `CC[C@H](C)[C@H](N)C(=O)NS(=O)(=O)CC[C@H]1O[C@@H](n2cnc3c(N)ncnc32)[C@H](O)[C@@H]1O`, the IC50 (usually the concentration needed to halve the response being measured) in assay [1] is 6.8 nM. For the same molecule, in assay [1] (read-out: Ki(app)), the Ki stood at 1.2 nM. As for `Nc1ncnc2c1ncn2[C@@H]1O[C@H](CCS(=O)(=O)NC(=O)[C@@H](N)CO)[C@@H](O)[C@H]1O`, in assay [2], the inhibition (as a rule, the relative decrease from the control value, in per cent) is 30%.
